Key:
Test in all cases: Drug sensitivity, MTS cell viability assay (GI50)
Format in all cases: cell-based
[1] = tested on: U2OS; conditions: Homo sapiens, 96 hours
Procedure: (§1) Drug sensitivity: Cell lines were screened for drug sensitivity by treatment with specified drugs 24 hours after seeding in appropriate seeding numbers into 96 well plates containing low glucose DME with 10% FBS. The drug was added to the plate in triplicate wells, and the cells are incubated in drug treated medium for 96 hours before cell viability was determined by MTS assay using CellTiter 96® Aqueous non-radioactive cell proliferation assay system (Promega, Madison, Wis. 53711 USA). The MTS assay was performed according to the manufacturer's instructions. Optical density was measured using a Bio-Tek 340 spectrophotometer (Bio-Tek, Winooski, Vt. 05404) and optical readings were then processed in Excel (Microsoft, Redmond, Wash. 98052-7329) and GraphPad Prism 5 linear regression software (GraphPad Software, La Jolla, Calif. 92037 USA) to determine concentration-response curves for calculating relative GI50s. […] The % growth inhibition of the test drug on cells were calculated as: [1−(Test Value)/(Control Value)]×100; these values were used to plot concentration-response curves, and then analyzed with linear regression software.

[2] = tested on: Hs578T; conditions: Homo sapiens, Hs-578T, 96 hours
Procedure: as §1

[3] = tested on: NCI-H520; conditions: Homo sapiens, NCI-H520, 96 hours
Procedure: as §1

[4] = tested on: N87; conditions: N87, 96 hours
Procedure: as §1

[5] = tested on: MDA-MB-453; conditions: Homo sapiens, MDA-MB-453, 96 hours
Procedure: as §1

[6] = tested on: MOLT-4; conditions: Homo sapiens, MOLT-4, 96 hours
Procedure: as §1

[7] = tested on: KG-1; conditions: Homo sapiens, KG-1, 96 hours
Procedure: as §1

[8] = tested on: HepG2; conditions: Homo sapiens; HepG2, 96 hours, MTS
Procedure: as §1

[9] = tested on: MCF7; conditions: Homo sapiens, MCF7, 96 hours
Procedure: as §1

[10] = tested on: HCT116; conditions: Homo sapiens, HCT-116, HCT116, 96 hours
Procedure: as §1

[11] = tested on: RS4:11; conditions: Homo sapiens, RS4:11, 96 hours
Procedure: as §1

[12] = tested on: HeLa; conditions: Homo sapiens, 96 hours
Procedure: as §1

[13] = tested on: MOLM-13; conditions: Homo sapiens, MOLM-13, 96 hours
Procedure: as §1

[14] = tested on: BT474; conditions: Homo sapiens, BT-474, BT474, 96 hours
Procedure: as §1

[15] = tested on: T47D; conditions: Homo sapiens, 96 hours
Procedure: as §1

[16] = tested on: MDA-MB-361; conditions: Homo sapiens, MDA-MB-361, 96 hours
Procedure: as §1

[17] = tested on: PLC/PRF/5; conditions: Homo sapiens, PLC/PRF/5, 96 hours
Procedure: as §1

[18] = tested on: RPMI8226; conditions: Homo sapiens, RPMI-8226, RPMI8226, 96 hours
Procedure: as §1

[19] = tested on: PC3; conditions: Homo sapiens, PC-3, PC3, 96 hours
Procedure: as §1

[20] = tested on: A549; conditions: Homo sapiens, A549, 96 hours
Procedure: as §1

[21] = tested on: ZR-75-30; conditions: Homo sapiens, ZR-75-30, 96 hours
Procedure: as §1

[22] = tested on: COLO205; conditions: Homo sapiens, COLO 205, COLO205, 96 hours
Procedure: as §1

[23] = tested on: U-937; conditions: Homo sapiens, U-937, 96 hours
Procedure: as §1

[24] = tested on: ZR-75-1; conditions: Homo sapiens, ZR-75-1, 96 hours
Procedure: as §1

[25] = tested on: Hep3B
Procedure: as §1

[26] = tested on: MV4-11; conditions: Homo sapiens, MV4-11, 96 hours
Procedure: as §1

[27] = tested on: HCC1954; conditions: Homo sapiens, HCC1954, 96 hours
Procedure: as §1

COc1ccc(Oc2cc(C)c(-c3csc(NC(=O)c4ccncc4)n3)c(C)c2)cc1 [compound 101001, N-(4-(4-(4-methoxyphenoxy)-2,6-dimethylphenyl)thiazol-2-yl)isonicotinamide]
GI50 [1]: 139 nM | GI50 [2]: 143 nM | GI50 [3]: 67.9 nM | GI50 [4]: > 30000 nM | GI50 [5]: 23.6 nM | GI50 [6]: > 30000 nM | GI50 [7]: 28.9 nM | GI50 [8]: 273 nM | GI50 [9]: 63.7 nM | GI50 [10]: 38.9 nM | GI50 [11]: 254 nM | GI50 [12]: 15.8 nM | GI50 [13]: 315 nM | GI50 [14]: 85.7 nM | GI50 [15]: 17.1 nM | GI50 [16]: > 10000 nM | GI50 [17]: 91.6 nM | GI50 [18]: 27.2 nM | GI50 [19]: 60 nM | GI50 [20]: > 10000 nM | GI50 [21]: 76.8 nM | GI50 [22]: 40.2 nM | GI50 [23]: 22 nM | GI50 [24]: 79.6 nM | GI50 ([25]; 96 hours, listed as 110001): 104 nM | GI50 ([25]; Homo sapiens, 96 h): 96.1 nM | GI50 [26]: 231 nM | GI50 [27]: > 10000 nM

Source: US9976183B2, “Biomarkers for cancers responsive to modulators of HEC1 activity” (TAIVEX THERAPEUTICS CORPORATION, priority 2011, dated 2018)
